In patent US10376456B2, “Concentrated and self-preserving compositions of mild surfactants for transparent and skin-pH personal care formulations” (GALAXY SURFACTANTS LTD., priority 2015, dated 2019):

Assays:
subject's volar arm = experiment: Corneometry analysis of skin hydration after repeated application of body-wash; assay type: in vivo; details: body-wash 12% active matter, 2% PEG-150 distearate, twice a day for fifteen days, 50% RH, 20° C.
Source text: Removal of Natural Moisturizing Factor (NMF) from stratum corneum during cleansing leads to a lower capacitance reading since there is less secondary bound water in the skin's corneocytes. […] The corneometer findings are consistent with the TEWL findings.

[1] = Critical micelle concentration (CMC); assay type: physicochemical
Source text: It is well established that in case of surfactants, lower the CMC value, milder the surfactants. Ionic surfactant molecules interact with proteins through charge-charge interaction since the charge density on the head group is high. Whenever aggregates are formed the charge density of micelle is much lesser as the charge gets spread over the large micelle. […] It can be seen from Table 2 that CMC of anionic sodium lauryl sulphate (SLS) is the highest and zwitterionic (electrically neutral) cocoamidopropyl (CAPB) is the lowest.

Compound | Skin moisture level (corneometry) (subject's volar arm) | CMC [1]
Sodium lauryl ether sulfate [sodium lauryl ether sulphate (2 EO)] | dry the stratum corneum | 
sodium cocoyl glycinate |  | 1.01 mM/liter
Sodium cocoyl isethionate |  | 0.14 mM/liter
Cocoamidopropyl betaine [CAPB] |  | 0.06 mM/liter
CCCCCCCCCCCCOS(=O)(=O)[O-].[Na+] [SLS, sodium lauryl sulfate] |  | 5.90 mM/liter
